Converted amounts (≈) assume the structure as drawn. Where two headings read alike, the source gives them in different places.
Experiments:
[1] = Rat Hepatocyte Stability (Test E); format: in vitro ADME; conditions: rat, hepatocytes, geometric mean if run multiple times
Protocol: Rat Hepatocyte Stability (Test E)
The assay was conducted according to the Rat Hepatocyte Stability Assay described in pages 170-174 of Wernevik, J. et al., “A Fully Integrated Assay Panel for Early Drug Metabolism and Pharmacokinetics Profiling”, Assay and Drug Development Technologies, 2020, 18(4), 157-179. Data are reported in Table 36 as mean Clint(μl/min/10^6 cells). Where the assay was run multiple times for the same compound, the geometric mean is reported.

[2] = Solubility (Test F); format: physicochemical; conditions: arithmetic mean if run multiple times
Protocol: The assay was conducted according to the Solubility Assay described in pages 164-167 of Wernevik, J. et al., “A Fully Integrated Assay Panel for Early Drug Metabolism and Pharmacokinetics Profiling”, Assay and Drug Development Technologies, 2020, 18(4), 157-179. Data are reported in Table 36 as solubility ([…]. Where the assay was run multiple times for the same compound, the arithmetic mean is reported.

[3] = Human Liver Microsomal Stability (Test C); format: in vitro ADME; conditions: human, liver microsomes
Protocol: Human Liver Microsomal Stability (Test C)
The assay was conducted according to the Human Liver Microsome Stability Assay described in pages 170-174 of Wernevik, J. et al., “A Fully Integrated Assay Panel for Early Drug Metabolism and Pharmacokinetics Profiling”, Assay and Drug Development Technologies, 2020, 18(4), 157-179. Data are reported in Table 36 as CLint (μl/min/mg protein). Where the assay was run multiple times for the same compound, the arithmetic mean is reported.

[4] = Human Plasma Protein Binding (Test B); format: in vitro ADME; conditions: fraction unbound (fu)
Protocol: Human Plasma Protein Binding (Test B)
The assay was conducted according to the Human Plasma Protein Binding Assay described in pages 167-170 of Wernevik, J. et al., “A Fully Integrated Assay Panel for Early Drug Metabolism and Pharmacokinetics Profiling”, Assay and Drug Development Technologies, 2020, 18(4), 157-179. Data are reported in Table 36 as fraction unbound (fu) (% free). Where the assay was run multiple times for the same compound, the arithmetic mean is reported.

[5] = biological target: T1, human RXFP1 (Homo sapiens, UniProt Q9HBX9); assay: RXFP1 Hu cAMP (Test A); format: cell-based; set-up: expressed in transfected cells; host or cells: Jump-In T-REx CHO-K1 cells (ThermoFisher), induced with 10 ng/ml doxycycline for 24 h
T1 sequence (Q9HBX9 1-757): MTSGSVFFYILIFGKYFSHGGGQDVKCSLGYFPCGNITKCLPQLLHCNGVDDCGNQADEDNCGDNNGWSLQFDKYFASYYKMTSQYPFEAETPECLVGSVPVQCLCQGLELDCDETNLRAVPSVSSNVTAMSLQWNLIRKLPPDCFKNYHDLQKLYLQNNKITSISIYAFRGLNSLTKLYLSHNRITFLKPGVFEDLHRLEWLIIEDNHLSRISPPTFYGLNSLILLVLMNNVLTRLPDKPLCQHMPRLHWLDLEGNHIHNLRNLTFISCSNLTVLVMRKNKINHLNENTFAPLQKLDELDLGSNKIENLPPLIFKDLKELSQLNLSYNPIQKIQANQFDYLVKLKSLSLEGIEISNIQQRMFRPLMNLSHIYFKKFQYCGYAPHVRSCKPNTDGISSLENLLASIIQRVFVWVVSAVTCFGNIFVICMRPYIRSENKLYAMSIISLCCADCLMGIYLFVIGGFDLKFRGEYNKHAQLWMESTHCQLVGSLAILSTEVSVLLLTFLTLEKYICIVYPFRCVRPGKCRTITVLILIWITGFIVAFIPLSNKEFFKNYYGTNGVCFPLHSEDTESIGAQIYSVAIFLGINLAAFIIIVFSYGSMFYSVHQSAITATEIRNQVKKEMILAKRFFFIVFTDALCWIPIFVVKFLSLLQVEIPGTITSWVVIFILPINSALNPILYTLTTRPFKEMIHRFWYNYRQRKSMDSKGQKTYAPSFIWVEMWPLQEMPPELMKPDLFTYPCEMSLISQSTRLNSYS
Outline: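 Read-out is HTRF signal, inversely proportional to cAMP, converted to cAMP amount by standard curve. Stimulation occurred in inducible CHO-K1 cells expressing the human receptor with phosphodiesterases blocked by 0.5 mM IBMX.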

[6] = RXFP1 Hu cAMP, read-out: Test A EC50

SMILES: COc1cc(F)c(O[C@H]2C[C@@](C)(C(=O)O)C2)cc1C(=O)N[C@@H]1[C@H]2CC[C@H](C2)[C@@H]1C(=O)NCC1(C)CCC1 [Example 149, (1S,3s)-3-(2-fluoro-4-methoxy-5-(((1S,2R,3S,4R)-3-(((1-methylcyclobutyl)methyl)carbamoyl)bicyclo[2.2.1]heptan-2-yl)carbamoyl)phenoxy)-1-methylcyclobutane-1-carboxylic acid]
- hepatocyte CLint [1]: 11 µL/min/1e6 cells
- solubility [2]: 840 µM (≈ 434 µg/mL)
- microsomal CLint [3]: 7.6 µL/min/mg
- Test B Human Plasma Protein Binding (% free) [4]: 11 % free

SMILES: COc1cc(F)c(-c2ccc(CCC(=O)O)cc2)cc1C(=O)N[C@@H]1[C@H]2CC[C@H](C2)[C@@H]1C(=O)Nc1cccc(S(=O)(=O)C(F)(F)F)c1 [Example 244]
- hepatocyte CLint [1]: 36 µL/min/1e6 cells
- solubility [2]: 240 µM (≈ 159 µg/mL)
- microsomal CLint [3]: 53 µL/min/mg
- Test A Sinf ([5]; RXFP1 Hu cAMP): 111%
- EC50 [5, 6]: 0.1 µM

SMILES: COc1cc(F)c(O[C@H]2CC[C@@](C)(C(=O)O)CC2)cc1C(=O)N[C@@H]1[C@H]2CC[C@H](C2)[C@@H]1C(=O)NCC1(C)CCC1 [Example 1, (1S,4s)-4-(2-Fluoro-4-methoxy-5-(((1S,2R,3S,4R)-3-(((1-methylcyclobutyl)methyl)carbamoyl)bicyclo[2.2.1]heptan-2-yl)carbamoyl)phenoxy)-1-methylcyclohexane-1-carboxylic acid]
- solubility [2]: > 500 µM
- Test B Human Plasma Protein Binding (% free) [4]: 4.3 % free

SMILES: COc1cc(F)c(O[C@H]2CC[C@@H](C(=O)O)CC2)cc1C(=O)N[C@@H]1[C@H]2CC[C@H](C2)[C@@H]1C(=O)Nc1cc(C(F)(F)F)ccc1Cl [Example 26]
- hepatocyte CLint [1]: 38 µL/min/1e6 cells
- solubility [2]: 250 µM (≈ 157 µg/mL)
- microsomal CLint [3]: 31 µL/min/mg
- Test A Sinf ([5]; RXFP1 Hu cAMP): 105%
- EC50 [5, 6]: 0.19 µM

SMILES: COc1cc(F)c(-c2ccc(C(=O)O)c(C)c2)cc1C(=O)N[C@@H]1[C@H]2CC[C@H](C2)[C@@H]1C(=O)Nc1cccc(S(=O)(=O)C(F)(F)F)c1 [Example 246]
- hepatocyte CLint [1]: 16 µL/min/1e6 cells
- solubility [2]: 860 µM (≈ 558 µg/mL)
- microsomal CLint [3]: 20 µL/min/mg
- Test A Sinf ([5]; RXFP1 Hu cAMP): 85%

SMILES: COc1cc(F)c(O[C@H]2CC[C@@](C)(C(=O)O)CC2)cc1C(=O)N[C@@H]1CCC[C@@H]1C(=O)NCC1(C)CCCCC1 [Example 64]
- hepatocyte CLint [1]: 67 µL/min/1e6 cells
- solubility [2]: 870 µM (≈ 476 µg/mL)
- microsomal CLint [3]: 74 µL/min/mg
- Test A Sinf ([5]; RXFP1 Hu cAMP): 107%

SMILES: COc1cc(F)c(O[C@H]2CC[C@@](C)(C(=O)O)CC2)cc1C(=O)N[C@@H]1CCC[C@@H]1C(=O)N[C@H](C)C(C)C [Example 60]
- hepatocyte CLint [1]: 11 µL/min/1e6 cells
- solubility [2]: > 1000 µM
- microsomal CLint [3]: 7 µL/min/mg
- Test A Sinf ([5]; RXFP1 Hu cAMP): 105%

SMILES: COc1cc(F)c(O[C@H]2CC[C@@](C)(C(=O)O)CC2)cc1C(=O)N[C@@H]1CCC[C@@H]1C(=O)NC(C(C)C)C(C)C [Example 62]
- hepatocyte CLint [1]: 55 µL/min/1e6 cells
- solubility [2]: > 1000 µM
- microsomal CLint [3]: 94 µL/min/mg
- Test A Sinf ([5]; RXFP1 Hu cAMP): 93%
- EC50 [5, 6]: > 4.2 µM

SMILES: COc1cc(F)c(O[C@H]2CC[C@@](C)(C(=O)O)CC2)cc1C(=O)N[C@@H]1CCC[C@@H]1C(=O)N[C@@H](C)C(C)(C)C [Example 61]
- hepatocyte CLint [1]: 13 µL/min/1e6 cells
- solubility [2]: > 1000 µM
- microsomal CLint [3]: 7.4 µL/min/mg
- Test A Sinf ([5]; RXFP1 Hu cAMP): 96%
- EC50 [5, 6]: 15 µM

SMILES: COc1cc(F)c(O[C@H]2CC[C@@](C)(C(=O)O)CC2)cc1C(=O)N[C@H]1[C@@H]2CC[C@@H](C2)[C@H]1C(=O)NCC1(C)CCC1 [Example 3, (1R,4s)-4-(2-Fluoro-4-methoxy-5-(((1R,2S,3R,4S)-3-(((1-methylcyclobutyl)methyl)carbamoyl)bicyclo[2.2.1]heptan-2-yl)carbamoyl)phenoxy)-1-methylcyclohexane-1-carboxylic acid]
- solubility [2]: 860 µM (≈ 468 µg/mL)
- Test B Human Plasma Protein Binding (% free) [4]: 3.7 % free

SMILES: COc1cc(F)c(O[C@H]2CC[C@@](C)(C(=O)O)CC2)cc1C(=O)N[C@@H]1CCC[C@@H]1C(=O)NCC(C)(C)C [Example 57, (1S,4s)-4-(2-Fluoro-4-methoxy-5-(((1R,2S)-2-(neopentylcarbamoyl)cyclopentyl)carbamoyl)phenoxy)-1-methylcyclohexane-1-carboxylic acid]
- hepatocyte CLint [1]: 11 µL/min/1e6 cells
- solubility [2]: > 1000 µM
- microsomal CLint [3]: 4.9 µL/min/mg
- Test A Sinf ([5]; RXFP1 Hu cAMP): 99%
- EC50 [5, 6]: 0.66 µM

SMILES: COc1cc(F)c(O[C@H]2CC[C@@](C)(C(=O)O)CC2)cc1C(=O)N[C@@H]1CCC[C@@H]1C(=O)N[C@@H](C)C1(C)CC1 (racemic) [Example 63]
- hepatocyte CLint [1]: 19 µL/min/1e6 cells
- solubility [2]: 610 µM (≈ 316 µg/mL)
- microsomal CLint [3]: 11 µL/min/mg
- EC50 [5, 6]: > 50 µM

SMILES: COc1cc(F)c(O[C@H]2CC[C@@](C)(C(=O)O)CC2)cc1C(=O)N[C@@H]1CCC[C@@H]1C(=O)NCC(C)C [Example 66]
- hepatocyte CLint [1]: 12 µL/min/1e6 cells
- solubility [2]: > 1000 µM
- microsomal CLint [3]: < 3 µL/min/mg
- Test A Sinf ([5]; RXFP1 Hu cAMP): 101%

SMILES: COc1cc(F)c(O[C@H]2CC[C@@](C)(C(=O)O)CC2)cc1C(=O)N[C@@H]1CCC[C@@H]1C(=O)N[C@@H](C)C(C)C [Example 55, (1S,4s)-4-(2-Fluoro-4-methoxy-5-(((1R,2S)-2-(((S)-3-methylbutan-2-yl)carbamoyl)cyclopentyl)carbamoyl)phenoxy)-1-methylcyclohexane-1-carboxylic acid]
- hepatocyte CLint [1]: 16 µL/min/1e6 cells
- solubility [2]: > 1000 µM
- microsomal CLint [3]: < 3 µL/min/mg
- Test A Sinf ([5]; RXFP1 Hu cAMP): 100%
- EC50 [5, 6]: > 8.4 µM

SMILES: COc1cc(F)c(O[C@H]2CC[C@@](C)(C(N)=O)CC2)cc1C(=O)N[C@@H]1[C@H]2CC[C@H](C2)[C@@H]1C(=O)NCC(C)(C)C [Example 53, (1R,2S,3R,4S)-3-(5-(((1s,4S)-4-Carbamoyl-4-methylcyclohexyl)oxy)-4-fluoro-2-methoxybenzamido)-N-neopentylbicyclo[2.2.1]heptane-2-carboxamide]
- hepatocyte CLint [1]: 150 µL/min/1e6 cells
- solubility [2]: 39 µM (≈ 20.7 µg/mL)
- microsomal CLint [3]: 130 µL/min/mg
- Test A Sinf ([5]; RXFP1 Hu cAMP): 122%
- EC50 [5, 6]: 0.16 µM

SMILES: CC1(CNC(=O)[C@H]2[C@@H]3CC[C@@H](C3)[C@H]2NC(=O)c2cc(O[C@H]3CC[C@@](C)(C(=O)O)CC3)c(F)cc2OCF)CCC1 [Example 4, (1S,4s)-4-(2-Fluoro-4-(fluoromethoxy)-5-(((1S,2R,3S,4R)-3-(((1-methylcyclobutyl)methyl)carbamoyl)bicyclo[2.2.1]heptan-2-yl)carbamoyl)phenoxy)-1-methylcyclohexane-1-carboxylic acid]
- hepatocyte CLint [1]: 6.9 µL/min/1e6 cells
- solubility [2]: > 1000 µM
- microsomal CLint [3]: 36 µL/min/mg
- Test A Sinf ([5]; RXFP1 Hu cAMP): 103%
- EC50 ([5]; Test A EC50, RXFP1 Hu cAMP): 0.0047 µM
